Data: US9357778B2, “N-acyl-2-(cyclo)alkypyrrolidines and piperidines useful as fungicides” (BAYER CROPSCIENCE AG, priority 2012, dated 2016)
Marks after values point to notes of the source that are not given here. Each block holds one molecule with its values, some of them ahead of it.

Experiments:
[1] = test system: Leptosphaeria nodorum; assay: In vivo preventive test on Leptosphaeria nodorum (wheat); conditions: evaluated 8 days after inoculation
Description: In Vivo Preventive Test on Leptosphaeria nodorum (Wheat) • Solvent: 49 parts by weight of N,N-dimethylacetamide • Emulsifier: 1 part by weight of alkylaryl polyglycol ether To produce a suitable preparation of active compound, 1 part by weight of active compound or active compound combination is mixed with the stated amounts of solvent and emulsifier, and the concentrate is diluted with water to the desired concentration. To test for preventive activity, young plants are sprayed with the preparation of active compound or active compound combination at the stated rate of application. After the spray coating has been dried, the plants are sprayed with a spore suspension of Leptosphaeria nodorum. The plants remain for 48 hours in an incubation cabinet at approximately 20° C. and a relative atmospheric humidity of approximately 100%. The plants are placed in the greenhouse at a temperature of approximately 22° C. and a relative atmospheric humidity of approximately 80%. The test is evaluated 8 days after the inoculation. 0% means an efficacy which corresponds to that of the untreated control, while an efficacy of 100% means that no disease is observed.

[2] = test system: Tomato; assay: Plant damages observed in the Alternaria solani preventive test (tomato); type: in vivo; conditions: footnote to table B2
Description: In Vivo Preventive Test on Alternaria solani (Tomato) To test for preventive activity, young plants are sprayed with the preparation of active compound at the stated rate of application. One day after this treatment, the plants are inoculated with an aqueous spore suspension of Alternaria solani. The plants remain for one day in an incubation cabinet at approximately 22° C. and a relative atmospheric humidity of 100%. Then the plants are placed in an incubation cabinet at approximately 20° C. and a relative atmospheric humidity of 96%. Under the same conditions, high (at least 85%) to total protection is observed at a dose of 500 and 100 ppm of active ingredient with compound of example 12, 20 and 25, whereas poor (less than 20%) protection to 100% of plant damages is observed with compound 1.006, compound CMP1 (chloro analogue of compound 1.006) and compound CMP2 (fluoro analogue of compound 1.006) claimed in patent application WO-2009/153191 as in table B2: […]

[3] = test system: Alternaria solani; assay: In vivo preventive test on Alternaria solani (tomato); conditions: evaluated 7 days after inoculation
Description: In Vivo Preventive Test on Alternaria solani (Tomato) • Solvent: 49 parts by weight of N,N-dimethylformamide • Emulsifier: 1 part by weight of alkylarylpolyglycolether To produce a suitable preparation of active compound, 1 part by weight of active compound is mixed with the stated amounts of solvent and emulsifier, and the concentrate is diluted with water to the desired concentration. To test for preventive activity, young plants are sprayed with the preparation of active compound at the stated rate of application. One day after this treatment, the plants are inoculated with an aqueous spore suspension of Alternaria solani. The plants remain for one day in an incubation cabinet at approximately 22° C. and a relative atmospheric humidity of 100%. Then the plants are placed in an incubation cabinet at approximately 20° C. and a relative atmospheric humidity of 96%. The test is evaluated 7 days after the inoculation. 0% means an efficacy which corresponds to that of the untreated control while an efficacy of 100% means that no disease is observed.

[4] = log P by HPLC on reversed-phase column (C 18), EEC Directive 79/831 Annex V.A8; type: physicochemical; conditions: 40° C., 0.1% aqueous formic acid and acetonitrile
Description: In table 1, the log P values were determined in accordance with EEC Directive 79/831 Annex V.A8 by HPLC (High Performance Liquid Chromatography) on a reversed-phase column (C 18), using the method described below: Temperature: 40° C.; Mobile phases: 0.1% aqueous formic acid and acetonitrile; linear gradient from 10% acetonitrile to 90% acetonitrile. Calibration was carried out using unbranched alkan-2-ones (comprising 3 to 16 carbon atoms) with known log P values (determination of the log P values by the retention times using linear interpolation between two successive alkanones). lambda-max-values were determined using UV-spectra from 200 nm to 400 nm and the peak values of the chromatographic signals.

[5] = test system: Sphaerotheca fuliginea; assay: In vivo preventive test on Sphaerotheca fuliginea (cucumber); conditions: 500 ppm of active ingredient, evaluated 7 days after inoculation
Description: In Vivo Preventive Test on Sphaerotheca Fulicinea (Cucumber) • Solvent: 49 parts by weight of N,N-dimethylformamide • Emulsifier: 1 part by weight of alkylarylpolyglycolether To produce a suitable preparation of active compound, 1 part by weight of active compound is mixed with the stated amounts of solvent and emulsifier, and the concentrate is diluted with water to the desired concentration. To test for preventive activity, young plants are sprayed with the preparation of active compound at the stated rate of application. One day after this treatment, the plants are inoculated with an aqueous spore suspension of Sphaerotheca fuliginea. Then the plants are placed in a greenhouse at approximately 23° C. and a relative atmospheric humidity of approximately 70%. The test is evaluated 7 days after the inoculation. 0% means an efficacy which corresponds to that of the untreated control, while an efficacy of 100% means that no disease is observed.

[6] = test system: Pyrenophora teres; assay: In vivo preventive test on Pyrenophora teres (barley); conditions: 500 ppm of active ingredient, evaluated 7-9 days after inoculation
Description: In Vivo Preventive Test on Pyrenophora teres (Barley) • Solvent: 49 parts by weight of N,N-dimethylformamide • Emulsifier: 1 part by weight of alkylaryl polyglycol ether To produce a suitable preparation of active compound, 1 part by weight of active compound is mixed with the stated amounts of solvent and emulsifier, and the concentrate is diluted with water to the desired concentration. To test for preventive activity, young plants are sprayed with the preparation of active compound at the stated rate of application. One day after this treatment, the plants are inoculated with an aqueous spore suspension of Pyrenophora teres. The plants remain for 48 hours in an incubation cabinet at 22° C. and a relative atmospheric humidity of 100%. Then the plants are placed in a greenhouse at a temperature of approximately 20° C. and a relative atmospheric humidity of approximately 80%. The test is evaluated 7-9 days after the inoculation. 0% means an efficacy which corresponds to that of the untreated control while an efficacy of 100% means that no disease is observed.

Compound: Cn1nc(C(F)F)c(C(=O)N2CCC[C@H]2COc2c(Cl)cc(Cl)cc2Cl)c1Cl [CMP1, [5-chloro-3-(difluoromethyl)-1-methyl-1H-pyrazol-4-yl]{(2S)-2-[(2,4,6-trichlorophenoxy)methyl]pyrrolidin-1-yl}methanone, reference compound]
- Efficacy ([1]; 100 ppm of active ingredient): 0%
- Efficacy ([1]; 500 ppm of active ingredient): 0%
- plant damages ([2]; 100 ppm): ^(a)together with 100% of plant damages
- plant damages ([2]; 500 ppm): ^(a)together with 100% of plant damages

Compound: Cn1nc(C(F)F)c(C(=O)N2CCC[C@H]2COc2c(Cl)cc(Cl)cc2Cl)c1F [CMP2, [3-(difluoromethyl)-5-fluoro-1-methyl-1H-pyrazol-4-yl]{(2S)-2-[(2,4,6-trichlorophenoxy)methyl]pyrrolidin-1-yl}methanone]
- plant damages ([2]; 100 ppm): ^(a)together with 100% of plant damages
- plant damages ([2]; 500 ppm): ^(a)together with 100% of plant damages

Compound: Cn1cc(C(=O)N2CCC[C@H]2COc2c(Cl)cc(Cl)cc2Cl)c(C(F)F)n1 [Compound 1.006, [3-(difluoromethyl)-1-methyl-1H-pyrazol-4-yl]{(2S)-2-[(2,4,6-trichlorophenoxy)methyl]pyrrolidin-1-yl}methanone, reference compound]
- Efficacy ([3]; 100 ppm of active ingredient): 20 ^(b) %
- Efficacy ([1]; 100 ppm of active ingredient): 40%
- Efficacy ([1]; 500 ppm of active ingredient): 60%
- plant damages ([2]; 500 ppm): ^(a)together with 100% of plant damages

Compound: CCCCCCC1CCCN1C(=O)c1c(C(F)F)nn(C)c1F (stereo not shown) [Example 8]
- logP [4]: 3.80
- Efficacy [5]: 98%
- Efficacy [6]: 100%
- Efficacy ([1]; 100 ppm of active ingredient): 90%
- Efficacy ([1]; 500 ppm of active ingredient): 95%

Compound: Cn1nc(C(F)F)c(C(=O)N2CCCC2C2CCCCC2)c1Cl (stereo not shown) [Example 10]
- logP [4]: 3.48
- Efficacy [5]: 90%
- Efficacy ([3]; 500 ppm of active ingredient): 94%
- Efficacy [6]: 100%

Compound: Cn1nc(C(F)F)c(C(=O)N2CCCC2C2CCCCC2)c1F (stereo not shown) [Example 11]
- logP [4]: 3.31
- Efficacy [5]: 95%
- Efficacy ([3]; 500 ppm of active ingredient): 94%
- Efficacy [6]: 100%
- Efficacy ([1]; 100 ppm of active ingredient): 80%
- Efficacy ([1]; 500 ppm of active ingredient): 95%

Compound: Cn1nc(C(F)F)c(C(=O)N2CCCC2C23CC4CC(CC(C4)C2)C3)c1F (stereo not shown) [Example 14]
- logP [4]: 4.44
- Efficacy [5]: 70%
- Efficacy ([3]; 500 ppm of active ingredient): 94%
- Efficacy [6]: 100%

Compound: Cn1nc(C(F)F)c(C(=O)N2CCCC2CC2CCCCC2)c1Cl (stereo not shown) [Example 16]
- logP [4]: 3.89
- Efficacy ([3]; 500 ppm of active ingredient): 94%
- Efficacy [6]: 100%
- Efficacy ([1]; 500 ppm of active ingredient): 70%

Compound: Cn1nc(C(F)F)c(C(=O)N2CCCC2CC2CCCCC2)c1F (stereo not shown) [Example 17]
- logP [4]: 3.78
- Efficacy [5]: 100%
- Efficacy ([3]; 500 ppm of active ingredient): 94%
- Efficacy [6]: 100%
- Efficacy ([1]; 100 ppm of active ingredient): 80%
- Efficacy ([1]; 500 ppm of active ingredient): 95%

Compound: Cn1nc(C(F)F)c(C(=O)N2CCCCC2C2CCCCC2)c1F (stereo not shown) [Example 24]
- logP [4]: 3.60
- Efficacy [5]: 95%
- Efficacy ([3]; 500 ppm of active ingredient): 94%
- Efficacy [6]: 100%

Compound: COCCCOCCC1CCCCN1C(=O)c1c(C(F)F)nn(C)c1F (stereo not shown) [Example 40]
- logP [4]: 2.25
- Efficacy ([3]; 500 ppm of active ingredient): 94%
- Efficacy [6]: 95%

Compound: COCCCC1CCCCN1C(=O)c1c(C(F)F)nn(C)c1F (stereo not shown) [Example 47]
- logP [4]: 2.18
- Efficacy ([3]; 500 ppm of active ingredient): 89%
- Efficacy [6]: 100%

Compound: Cn1nc(C(F)F)c(C(=O)N2CCCC2CC2CC3CCC2C3)c1F (stereo not shown) [Example 48]
- logP [4]: 3.89
- Efficacy [5]: 100%
- Efficacy ([3]; 500 ppm of active ingredient): 100%
- Efficacy [6]: 100%
- Efficacy ([1]; 500 ppm of active ingredient): 90%

Compound: Cn1nc(C(F)F)c(C(=O)N2CCCC2CC2CC3CCC2C3)c1Cl (stereo not shown) [Example 50]
- logP [4]: 3.99
- Efficacy ([3]; 500 ppm of active ingredient): 88%
- Efficacy [6]: 100%

Continued, in another order:

- logP [4]: 2.88
Compound: Cn1cc(C(=O)N2CCCC2C2CCCCC2)c(C(F)F)n1 (stereo not shown) [Example 9]
- Efficacy [5]: 95%
- Efficacy ([3]; 500 ppm of active ingredient): 89%
- Efficacy [6]: 100%

- logP [4]: 3.33
Compound: Cn1cc(C(=O)N2CCCC2CC2CCCCC2)c(C(F)F)n1 (stereo not shown) [Example 15]
- Efficacy [5]: 85%
- Efficacy ([3]; 500 ppm of active ingredient): 89%
- Efficacy [6]: 100%

- logP [4]: 3.15
Compound: Cn1cc(C(=O)N2CCCCC2C2CCCCC2)c(C(F)F)n1 (stereo not shown) [Example 25]
- Efficacy [5]: 100%
- Efficacy ([3]; 100 ppm of active ingredient): 90%
- Efficacy ([3]; 500 ppm of active ingredient): 90%
- Efficacy [6]: 100%

- logP [4]: 4.19
Compound: Cn1nc(C(F)F)c(C(=O)N2CCCCC2CC2CCCCC2)c1F (stereo not shown) [Example 26]
- Efficacy [5]: 100%
- Efficacy ([3]; 500 ppm of active ingredient): 100%
- Efficacy [6]: 100%

- logP [4]: 2.66
Compound: Cn1nc(C(F)F)c(C(=O)N2CCCCC2CCOCC2CC2)c1F (stereo not shown) [Example 35]
- Efficacy ([3]; 500 ppm of active ingredient): 94%
- Efficacy [6]: 94%

- logP [4]: 3.51
Compound: Cn1nc(C(F)F)c(C(=O)N2CCCCC2CCOCC2CCC2)c1Cl (stereo not shown) [Example 36]
- Efficacy ([3]; 500 ppm of active ingredient): 88%
- Efficacy [6]: 78%

- logP [4]: 3.33
Compound: Cn1nc(C(F)F)c(C(=O)N2CCCCC2CCOCC2CCC2)c1F (stereo not shown) [Example 37]
- Efficacy ([3]; 500 ppm of active ingredient): 94%
- Efficacy [6]: 94%

- logP [4]: 4.23
Compound: Cn1cc(C(=O)N2CCCCC2CCOCCC2CCCCC2)c(C(F)F)n1 (stereo not shown) [Example 42]
- Efficacy ([3]; 500 ppm of active ingredient): 78%
- Efficacy [6]: 95%

- logP [4]: 4.67
Compound: Cn1nc(C(F)F)c(C(=O)N2CCCCC2CCOCCC2CCCCC2)c1F (stereo not shown) [Example 44]
- Efficacy ([3]; 500 ppm of active ingredient): 89%
- Efficacy [6]: 100%

- logP [4]: 3.44
Compound: Cn1cc(C(=O)N2CCCC2CC2CC3CCC2C3)c(C(F)F)n1 (stereo not shown) [Example 49]
- Efficacy [5]: 90%
- Efficacy ([3]; 500 ppm of active ingredient): 94%
- Efficacy [6]: 100%
- Efficacy ([1]; 500 ppm of active ingredient): 70%
